{
  "source": "patent US20090133166A1",
  "about": "“Methods for Improving Flowering Characteristics Using Methyl Dihydrojasmonate” (NEW BIOLOGY, INC., priority 2007, published 2009)",
  "key": {"[1]": {"test_system": "field grown ‘Julia Child’ roses", "assay": "Vase life / bloom stage of cut field grown roses after pre-harvest foliar treatment", "assay_type": "in vivo", "parameters": "key to Bloom Stage Day 1 / Bloom Stage Day 3: a: Green Bud; b: Full Bud; c: Flower in early bloom stage; d: Flower in fully open stage; Flower in late bloom stage; Fully wilted flower; Flower drooped before fully opening", "procedure": "Foliage of field grown ‘Julia Child’ roses were sprayed to the point of drip 24 hours before harvesting with an aqueous solution comprising 5.0 mM MDHJ, 0.125% Triton® X-100, and 0.5% canola oil. On average, about 100 ml of the formulation was applied per plant, comprising an approximate volume of 130 μl (or 500 μM) MDHJ. Stems of flowers in the bud to early-bloom stage were cut in the field. Stems received a fresh cut while submerged under water before transferring to a water-filled vase. The bloom stage of 4-5 flowers was analyzed on day 1 and day 3, as compared with untreated roses that were otherwise similarly handled. FIG. 1 illustrates the full vases of flowers for the treated and untreated roses on day 1 and day 3, respectively. FIG. 2 illustrates individual roses on day 1 and day 3."}, "[2]": {"test_system": "Parade Roses®", "assay": "Flower development on intact flowering rose plants after foliar treatment", "assay_type": "in vivo", "parameters": "key to Bloom Stage Day 1 / Bloom Stage Day 12: 1: Early bloom; 2: Fully Open; 3: Wilted", "procedure": "Parade Roses® with flowers in the bud to early bloom stage were treated to the point of drip on day 1 and day 2 with an aqueous solution comprising either (1) 0.125% Triton® X-100 and 0.5% canola oil as a control treatment; or (2) 1.5 mM MDHJ, 0.125% Triton® X-100, and 0.5% canola oil. There were four plants per treatment. Approximately 10 ml of each treatment was applied to each plant, comprising approximately 3.9 μL (15 μM MDHJ). Rate of flower development of individual flowers was monitored and compared between treatments. On day 1 and day 12, individual flowers were rated according to their stage of blooming. FIG. 3 is a photographic comparison of treated and untreated plants at day 1 and day 12."}, "[3]": {"settings": "plants treated before harvesting, vs untreated"}},
  "note": "Values joined by “and” are separate entries in the source; they are usually repeats but may differ in a detail not shown here. Identical values can stand only once.",
  "data": [
    {"smiles": "CCCCCC1C(=O)CCC1CC(=O)OC", "note": "(stereo not shown) [MDHJ, methyl dihydrojasmonate]", "values": [
      {"measurement": "Bloom Stage Day 1", "setting": "[1]; individual cut flowers, day 1, foliage sprayed 24 hours before harvesting with 5.0 mM MDHJ, 0.125% Triton X-100, 0.5% canola oil, listed as Treated", "value": "d and c and b (2×)"},
      {"measurement": "Bloom Stage Day 3", "setting": "[1]; individual cut flowers, day 3, foliage sprayed 24 hours before harvesting with 5.0 mM MDHJ, 0.125% Triton X-100, 0.5% canola oil", "value": "d"},
      {"measurement": "Ability of buds to open fully into flowers", "setting": "[1]; plants treated before harvesting buds and early flowers, vs untreated", "value": "improving the ability of the buds to open fully into flowers"},
      {"measurement": "Bent neck of stems", "setting": "[1]; [3]", "value": "prevents stems from exhibiting bent neck"},
      {"measurement": "Flower wilting", "setting": "[1]; [3]", "value": "delays flower wilting"},
      {"measurement": "Average Bloom Stage Day 1", "setting": "[2]; average of 8 flowers, day 1, scale 1 early bloom, 2 fully open, 3 wilted, 1.5 mM MDHJ formulation", "value": 1.4},
      {"measurement": "Average Bloom Stage Day 12", "setting": "[2]; average of 8 flowers, day 12, scale 1 early bloom, 2 fully open, 3 wilted, 1.5 mM MDHJ formulation", "value": 1.4},
      {"measurement": "Flower development on intact plants", "setting": "[2]; formulation containing MDHJ vs control formulation without MDHJ", "value": "prolonged flower development"},
      {"measurement": "Bloom Stage Day 1", "setting": "[2]; individual flowers on intact plants, day 1, 1.5 mM MDHJ, 0.125% Triton X-100, 0.5% canola oil applied day 1 and day 2, listed as Treatment 2", "value": "2 (3×) and 1 (5×)"},
      {"measurement": "Bloom Stage Day 12", "setting": "[2]; individual flowers on intact plants, day 12, 1.5 mM MDHJ, 0.125% Triton X-100, 0.5% canola oil applied day 1 and day 2, listed as Treatment 2", "value": "2 (3×) and 1 (5×)"}
    ]}
  ]
}
